This is an account of results in US11485742B2, “2-azaspiro[3.4]octane derivatives as M4 agonists” (NOVARTIS AG, priority 2019, dated 2022).

Structures can show the parent of a compound that is named as a salt. Bounds are passed on as bounds.

This experiment deals with T1, human cloned CHRM2 receptor (Homo sapiens, UniProt P08172).
T1 construct: expressed in transfected cells; host or cells: CHO-K1 (M2_CHO)
T1 sequence (P08172 1-466): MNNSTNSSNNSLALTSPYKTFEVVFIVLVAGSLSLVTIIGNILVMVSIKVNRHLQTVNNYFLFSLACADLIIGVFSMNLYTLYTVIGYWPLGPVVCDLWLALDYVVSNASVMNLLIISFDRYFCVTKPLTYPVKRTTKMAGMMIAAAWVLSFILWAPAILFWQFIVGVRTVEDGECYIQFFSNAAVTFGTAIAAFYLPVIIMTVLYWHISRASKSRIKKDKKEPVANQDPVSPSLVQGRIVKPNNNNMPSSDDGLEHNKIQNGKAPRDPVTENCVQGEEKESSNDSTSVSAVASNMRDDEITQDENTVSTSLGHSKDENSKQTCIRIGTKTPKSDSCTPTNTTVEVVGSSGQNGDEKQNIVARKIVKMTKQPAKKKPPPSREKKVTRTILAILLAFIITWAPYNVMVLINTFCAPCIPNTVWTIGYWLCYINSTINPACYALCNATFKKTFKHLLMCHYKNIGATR
The experiment in a line: CHRM2 Ca++ Flux Assay (M2_CHO cells, agonist mode). Format: cell-based. The conditions noted are these: M2 CHO cells; for EC50: agonist mode, geometric mean if tested more than once, read-out: M2 FDSS EC50; for Emax / M2 FDSS PA %: Percent Activity (PA) measured to EC100 of Carbachol; for Emax: read-out: M2 FDSS PA %. Put shortly:
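CHO-K1 cells stably expressing human CHRM2 were plated overnight at 12K cells/well and loaded with Ca++ dye for 1–2 h. They were then held 60 minutes in HBSS −Ca/−Mg, 20 mM HEPES, 2.5 mM probenecid, 20 μM ATP. Agonist-mode Ca++ flux was read over 3 minutes. Four-parameter fits of triplicates gave percent activity relative to carbachol EC100.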

In general, EC50 refers to the concentration at which the effect is half-maximal. With `Fc1ccc(OC2CCOCC2)c(C2CCN([C@@H]3COC4(C3)CN(c3nncs3)C4)CC2)c1` [Example 5J, (S)-7-(4-(5-fluoro-2-((tetrahydro-2H-pyran-4-yl)oxy)phenyl)piperidin-1-yl)-2-(1,3,4-thiadiazol-2-yl)-5-oxa-2-azaspiro[3.4]octane], the half-maximal effective concentration (EC50) was 4.75 µM and the Emax is 46%.
As to `c1ccc(C2CCN([C@@H]3COC4(C3)CN(c3ncco3)C4)CC2)c(O[C@@H]2CCOC2)c1` [Example 4F, (S)-2-(oxazol-2-yl)-7-(4-(2-(((R)-tetrahydrofuran-3-yl)oxy)phenyl)piperidin-1-yl)-5-oxa-2-azaspiro[3.4]octane], the EC50 came to 3.26 µM and the Emax was found to be 17%.
Turning to `OC[C@H]1C[C@H](Oc2ccc(F)cc2C2CCN([C@@H]3COC4(C3)CN(c3nnco3)C4)CC2)C1` (single isomer, unassigned) [Example 2II, ((1S,3r)-3-(2-(1-((S)-2-(1,3,4-oxadiazol-2-yl)-5-oxa-2-azaspiro[3.4]octan-7-yl)piperidin-4-yl)-4-fluorophenoxy)cyclobutyl)methanol or ((1R,3s)-3-(2-(1-((S)-2-(1,3,4-oxadiazol-2-yl)-5-oxa-2-azaspiro[3.4]octan-7-yl)piperidin-4-yl)-4-fluorophenoxy)cyclobutyl)methanol], the EC50 is 4.29 µM and the “M2 FDSS PA %” value was 23%.
For `Fc1cc(OCC2(F)COC2)c(C2CCN([C@@H]3COC4(C3)CN(c3ncco3)C4)CC2)cc1F` [Example 4P, (S)-7-(4-(4,5-difluoro-2-((3-fluorooxetan-3-yl)methoxy)phenyl)piperidin-1-yl)-2-(oxazol-2-yl)-5-oxa-2-azaspiro[3.4]octane], the EC50 is 10.5 µM and the Emax was found to be 28%.
The like results for `Fc1ccc(O[C@H]2CCOC2)c(C2CCN([C@@H]3COC4(C3)CN(c3nncs3)C4)CC2)c1` [Example 5O, (S)-7-(4-(5-fluoro-2-(((S)-tetrahydrofuran-3-yl)oxy)phenyl)piperidin-1-yl)-2-(1,3,4-thiadiazol-2-yl)-5-oxa-2-azaspiro[3.4]octane] were, in that order, 1.17 µM and 33%.
Turning to `Fc1ccc(O[C@H]2CCCOC2)c(C2CCN([C@@H]3COC4(C3)CN(c3nnco3)C4)CC2)c1` (single isomer, unassigned) [Example 2R, (S)-7-(4-(5-fluoro-2-(((S)-tetrahydro-2H-pyran-3-yl)oxy)phenyl)piperidin-1-yl)-2-(1,3,4-oxadiazol-2-yl)-5-oxa-2-azaspiro[3.4]octane or (S)-7-(4-(5-fluoro-2-(((R)-tetrahydro-2H-pyran-3-yl)oxy)phenyl)piperidin-1-yl)-2-(1,3,4-oxadiazol-2-yl)-5-oxa-2-azaspiro[3.4]octane], the EC50 turned out to be 0.259 µM and the “M2 FDSS PA %” value was determined as 42%.
The matching figures for `C[C@H](Oc1ccc(F)cc1C1CCN([C@@H]2COC3(C2)CN(c2nnco2)C3)CC1)C1CCOCC1` (single isomer, unassigned) [Example 2Y, (S)-7-(4-(5-fluoro-2-((S)-1-(tetrahydro-2H-pyran-4-yl)ethoxy)phenyl)piperidin-1-yl)-2-(1,3,4-oxadiazol-2-yl)-5-oxa-2-azaspiro[3.4]octane or (S)-7-(4-(5-fluoro-2-((R)-1-(tetrahydro-2H-pyran-4-yl)ethoxy)phenyl)piperidin-1-yl)-2-(1,3,4-oxadiazol-2-yl)-5-oxa-2-azaspiro[3.4]octane]: 3.33 µM and 35%.
With `COc1cc(F)ccc1C1CCN([C@@H]2COC3(C2)CN(c2ncns2)C3)CC1` [Example 5E, (S)-7-(4-(4-fluoro-2-methoxyphenyl)piperidin-1-yl)-2-(1,2,4-thiadiazol-5-yl)-5-oxa-2-azaspiro[3.4]octane], the 50% effective concentration (EC50) was more than 25 µM and the Emax was 0%.
With `c1ccc(C2CCN([C@@H]3COC4(C3)CN(c3ncco3)C4)CC2)c(OC2COC2)c1` [Example 4C, (S)-2-(oxazol-2-yl)-7-(4-(2-(oxetan-3-yloxy)phenyl)piperidin-1-yl)-5-oxa-2-azaspiro[3.4]octane], the 50% effective concentration (EC50) amounted to 0.433 µM and the Emax amounted to 38%.
`COc1ccccc1C1CCN([C@@H]2COC3(C2)CN(c2nncs2)C3)CC1` [Example 5R, (S)-7-(4-(2-methoxyphenyl)piperidin-1-yl)-2-(1,3,4-thiadiazol-2-yl)-5-oxa-2-azaspiro[3.4]octane]: the concentration for a half-maximal effect (EC50) came to 1.24 µM and the Emax amounted to 18%.
As to `Fc1ccc(O[C@@H]2CCOC2)c(C2CCN([C@@H]3COC4(C3)CN(c3nnco3)C4)CC2)c1` [Example 1D, (S)-7-(4-(5-fluoro-2-(((R)-tetrahydrofuran-3-yl)oxy)phenyl)piperidin-1-yl)-2-(1,3,4-oxadiazol-2-yl)-5-oxa-2-azaspiro[3.4]octane], the 50% effective concentration (EC50) amounted to 0.607 µM and the Emax came out at 50%.
With `Fc1cc(OC2COC2)c(C2CCN([C@@H]3COC4(C3)CN(c3nnco3)C4)CC2)cc1F` [Example 2FF, (S)-7-(4-(4,5-difluoro-2-(oxetan-3-yloxy)phenyl)piperidin-1-yl)-2-(1,3,4-oxadiazol-2-yl)-5-oxa-2-azaspiro[3.4]octane], the EC50 came out at 0.312 µM and the Emax stood at 28%.
The like results for `c1ccc(C2CCN([C@@H]3COC4(C3)CN(c3nncs3)C4)CC2)c(OC2COC2)c1` [Example 5Q, (S)-7-(4-(2-(oxetan-3-yloxy)phenyl)piperidin-1-yl)-2-(1,3,4-thiadiazol-2-yl)-5-oxa-2-azaspiro[3.4]octane formate salt] were, in that order, more than 25 µM and 0%.
The like results for `COc1cc(F)ccc1C1CCN([C@@H]2COC3(C2)CN(c2nncs2)C3)CC1` [Example 5T, (S)-7-(4-(4-fluoro-2-methoxyphenyl)piperidin-1-yl)-2-(1,3,4-thiadiazol-2-yl)-5-oxa-2-azaspiro[3.4]octane] were, in that order, 20 µM and 35%.
In the case of `COC(C)(C)CCOc1ccc(F)cc1C1CCN([C@@H]2COC3(C2)CN(c2nncs2)C3)CC1` [Example 5N, (S)-7-(4-(5-fluoro-2-(3-methoxy-3-methylbutoxy)phenyl)piperidin-1-yl)-2-(1,3,4-thiadiazol-2-yl)-5-oxa-2-azaspiro[3.4]octane], the EC50 is more than 25 µM and the Emax stood at 38%.
The matching figures for `Fc1ccc(OC2COC2)c(C2CCN([C@@H]3COC4(C3)CN(c3nncs3)C4)CC2)c1` [Example 5G, (S)-7-(4-(5-fluoro-2-(oxetan-3-yloxy)phenyl)piperidin-1-yl)-2-(1,3,4-thiadiazol-2-yl)-5-oxa-2-azaspiro[3.4]octane]: 0.657 µM and 35%.
For `Fc1cc(OC2COC2)c(C2CCN([C@@H]3COC4(C3)CN(c3ncco3)C4)CC2)cc1F` [Example 4Q, (S)-7-(4-(4,5-difluoro-2-(oxetan-3-yloxy)phenyl)piperidin-1-yl)-2-(oxazol-2-yl)-5-oxa-2-azaspiro[3.4]octane], the EC50 is 1.88 µM and the Emax is 13%.
The like results for `COc1ccccc1C1CCN([C@@H]2COC3(C2)CN(c2ncns2)C3)CC1` [Example 5B, (S)-7-(4-(2-methoxyphenyl)piperidin-1-yl)-2-(1,2,4-thiadiazol-5-yl)-5-oxa-2-azaspiro[3.4]octane] were, in that order, more than 25 µM and 0%.
For `CC(C)(O)COc1ccc(F)cc1C1CCN([C@@H]2COC3(C2)CN(c2ncns2)C3)CC1` [Example 5C, (S)-1-(2-(1-(2-(1,2,4-thiadiazol-5-yl)-5-oxa-2-azaspiro[3.4]octan-7-yl)piperidin-4-yl)-4-fluorophenoxy)-2-methylpropan-2-ol], the 50% effective concentration (EC50) was more than 25 µM and the Emax worked out at 0%.
`c1ccc([C@@H]2CCOC2)c(C2CCN([C@@H]3COC4(C3)CN(c3nnco3)C4)CC2)c1` (single isomer, unassigned) [Example 3B, (S)-2-(1,3,4-oxadiazol-2-yl)-7-(4-(2-((S)-tetrahydrofuran-3-yl)phenyl)piperidin-1-yl)-5-oxa-2-azaspiro[3.4]octane or (S)-2-(1,3,4-oxadiazol-2-yl)-7-(4-(2-((R)-tetrahydrofuran-3-yl)phenyl)piperidin-1-yl)-5-oxa-2-azaspiro[3.4]octane]: the half-maximal effective concentration (EC50) turned out to be 1.5 µM and the “M2 FDSS PA %” value amounted to 31%.
Consider `c1ccc(C2CCN([C@@H]3COC4(C3)CN(c3nnco3)C4)CC2)c(CC2CCOCC2)c1` [Example 3G, (S)-2-(1,3,4-oxadiazol-2-yl)-7-(4-(2-((tetrahydro-2H-pyran-4-yl)methyl)phenyl)piperidin-1-yl)-5-oxa-2-azaspiro[3.4]octane], for which the EC50 turned out to be 3.66 µM and the Emax was found to be 16%.
The like results for `COc1ccc(F)cc1C1CCN([C@@H]2COC3(C2)CN(c2ncco2)C3)CC1` [Example 4I, (S)-7-(4-(5-fluoro-2-methoxyphenyl)piperidin-1-yl)-2-(oxazol-2-yl)-5-oxa-2-azaspiro[3.4]octane] were, in that order, more than 25 µM and 0%.
